Reference: patent US20120308682A1, “RUMINANT FEED, PRODUCTS, AND METHODS COMPRISING BENEFICIAL FATTY ACIDS” (MONSANTO TECHNOLOGY LLC, priority 2009, published 2012)

Test system: Holstein cows
Test: Milk fatty acid composition after abomasal or ruminal infusion of SDA-enhanced soybean oil in dairy cows (gas chromatography)
Format: in vivo
Conditions: of the SDA present in the abomasally infused oil; range=36.8 to 41.9%
Excerpt: In this Example, transgenic soybean oil containing SDA was either infused directly in the rumen or directly into the abomasum bypassing the rumen to examine the potential of using SDA-enhanced soybean oil to increase the milk fat content of omega-3 fatty acids in dairy cows and to determine the efficiency of SDA uptake from the digestive tract and transfer to milk fat.
Three multiparous, pregnant, rumen-fistulated Holstein cows averaging 267 days in lactation were assigned randomly to a 3×3 Latin square design. Treatments were: 1) control (no oil infusion); 2) abomasal infusion of SDA-enhanced SBO (SDA-abo) and 3) ruminal infusion of SDA-enhanced SBO (SDA-rum). Oil infusions (210 g/d) provided 57 g/d of stearidonic acid and infusion periods were 7 d with a 7 d washout between periods. […]
Cows were milked twice a day with two milk samples obtained at each milking. One milk sample was analyzed for major components (i.e., fat, protein, lactose) by infrared analysis. The second milk sample was analyzed for fatty acids with extraction, methylation and gas chromatographic analysis. Fatty acids were quantified using pure methyl ester standards and a butter oil reference standard was analyzed periodically to monitor column performance and correction factors for individual fatty acids. […]

CC/C=C\C/C=C\C/C=C\C/C=C\CCCCC(=O)O [SDA, stearidonic acid]
transfer efficiency of SDA to milk fat: 39.3%
